The results in this text go back to article PMC7074965, “Discovery of Two Brominated Oxindole Alkaloids as Staphylococcal DNA Gyrase and Pyruvate Kinase Inhibitors via Inverse Virtual Screening” (Microorganisms, 2020).

The assay has as its target T1, Topo IV from S. aureus (ParE) (Staphylococcus aureus, UniProt P0C1S7).
T1 construct: purchased Inspiralis
The assay can be described thus: Topoisomerase IV inhibitory assay (Inspiralis kit). Format: biochemical. Conditions: staphylococcal Topo IV (ParE), mean of three experiments ± S.D. The procedure:
DNA gyrase (type II topoisomerase) and topoisomerase IV (Topo IV; ParE) introduce negative supercoils into DNA, utilizing ATP hydrolysis as a source of energy. They are considered essential bacterial regulatory enzymes that are absent in eukaryotes. Gyrase subunit B (Gyr-B) and Topo IV inhibitory activities were determined using the Inspiralis assay kit (Inspiralis®, UK) on streptavidin-coated 96-well microtiter plates (Thermo Scientific, Germany) according to the manufacturer’s protocols. The assay measures the ability of the tested compounds to inhibit the ATPase activity of both Gyr-B and ParE subunits. Briefly, the plates were hydrated with buffer (20 mM Tris-HCl with pH 7.6, 0.01% w/v BSA, 0.05% v/v Tween 20, 137 mM NaCl) and the biotinylated oligonucleotide was then immobilized. […] The produced fluorescence was measured using a microplate reader (BioTek Synergy, excitation: 485 nm, emission: 535 nm, Germany). […] The PK inhibitory activity of the tested compounds was determined according to the previously reported method. […] The PK activity was measured in a continuous assay coupled to lactate dehydrogenase (LDH) in which the change in absorbance at 340 nm owing to the oxidation of NADH was measured by the microplate reader. […] IC50 values in both assays were determined using seven concentrations of tested compounds. […]

T1 sequence (P0C1S7 whole entry): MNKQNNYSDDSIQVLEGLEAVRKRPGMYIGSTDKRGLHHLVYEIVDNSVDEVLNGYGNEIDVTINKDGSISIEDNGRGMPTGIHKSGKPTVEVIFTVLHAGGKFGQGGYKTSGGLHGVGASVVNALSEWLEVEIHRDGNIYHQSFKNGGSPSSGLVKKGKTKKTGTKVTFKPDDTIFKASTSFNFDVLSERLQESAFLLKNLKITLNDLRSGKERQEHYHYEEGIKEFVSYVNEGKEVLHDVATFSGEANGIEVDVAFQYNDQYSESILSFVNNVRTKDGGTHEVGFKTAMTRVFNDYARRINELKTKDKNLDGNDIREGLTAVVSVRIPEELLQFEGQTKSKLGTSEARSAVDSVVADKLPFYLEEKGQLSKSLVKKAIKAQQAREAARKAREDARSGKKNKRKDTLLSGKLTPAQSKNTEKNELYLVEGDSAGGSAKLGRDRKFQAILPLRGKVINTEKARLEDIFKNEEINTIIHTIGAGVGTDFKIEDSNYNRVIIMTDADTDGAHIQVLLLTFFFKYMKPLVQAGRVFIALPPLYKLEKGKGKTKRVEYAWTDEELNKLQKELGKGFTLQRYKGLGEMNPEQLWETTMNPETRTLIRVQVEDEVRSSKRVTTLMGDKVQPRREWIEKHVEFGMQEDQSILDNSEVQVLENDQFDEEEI
T1 sequence (P0C1U9 whole entry partner): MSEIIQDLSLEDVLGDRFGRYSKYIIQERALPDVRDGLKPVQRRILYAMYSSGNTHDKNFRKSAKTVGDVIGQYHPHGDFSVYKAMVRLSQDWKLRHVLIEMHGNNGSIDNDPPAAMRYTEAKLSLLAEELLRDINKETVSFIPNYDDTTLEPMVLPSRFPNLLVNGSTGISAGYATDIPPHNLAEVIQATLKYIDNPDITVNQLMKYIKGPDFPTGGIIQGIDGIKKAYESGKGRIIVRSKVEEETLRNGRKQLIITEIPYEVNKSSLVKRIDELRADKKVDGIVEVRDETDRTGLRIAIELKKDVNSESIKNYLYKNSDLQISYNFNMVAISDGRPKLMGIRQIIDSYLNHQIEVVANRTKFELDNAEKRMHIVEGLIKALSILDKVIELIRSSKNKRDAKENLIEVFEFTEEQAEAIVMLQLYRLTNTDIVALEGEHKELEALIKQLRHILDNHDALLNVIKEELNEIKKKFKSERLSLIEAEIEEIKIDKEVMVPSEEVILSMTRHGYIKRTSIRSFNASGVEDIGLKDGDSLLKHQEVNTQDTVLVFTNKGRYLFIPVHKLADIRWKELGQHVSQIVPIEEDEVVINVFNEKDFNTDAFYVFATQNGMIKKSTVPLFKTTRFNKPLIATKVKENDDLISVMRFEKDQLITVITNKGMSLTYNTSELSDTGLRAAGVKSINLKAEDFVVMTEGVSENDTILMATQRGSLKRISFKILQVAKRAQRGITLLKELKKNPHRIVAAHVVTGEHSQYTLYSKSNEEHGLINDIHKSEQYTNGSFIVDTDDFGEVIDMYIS

On to `CO[C@@H]1[C@@H](OC(N)=O)[C@@H](O)[C@H](Oc2ccc3c(O)c(NC(=O)c4ccc(O)c(CC=C(C)C)c4)c(=O)oc3c2C)OC1(C)C` [Novobiocin], for which the half-inhibitory concentration (IC50) (commonly the point on the concentration scale where inhibition reaches its midpoint) came out at 0.22 ± 0.01 µM.
